Test results: the NIST ThermoML archive (doi:10.1021/je2006743)

Settings: 101.33 kPa, Liquid; for viscosity: Falling or rolling sphere viscometry; for mass density: Vibrating tube method

CCC[N+](C)(C)CCO.O=S(=O)([N-]S(=O)(=O)C(F)(F)F)C(F)(F)F
Settings | mass density [kg/m3] | viscosity [mPa·s]
293.15 K | – | 160
293.16 K | 1453.6 | –
303.15 K | – | 92.7
303.16 K | 1444.5 | –
313.11 K | 1435.7 | –
313.15 K | – | 58.1
323.14 K | 1426.8 | –
323.15 K | – | 38.7
333.15 K | – | 30.3
333.16 K | 1418.1 | –
343.14 K | 1408.7 | –
343.15 K | – | 22.9

CC(=O)OCC[N+](C)(C)C.O=S(=O)([N-]S(=O)(=O)C(F)(F)F)C(F)(F)F
Settings | mass density [kg/m3] | viscosity [mPa·s]
293.15 K | – | 309
293.18 K | 1486.9 | –
303.15 K | – | 162
303.19 K | 1477.3 | –
313.15 K | – | 90.7
313.21 K | 1468 | –
323.15 K | – | 56.8
323.16 K | 1458.8 | –
333.15 K | – | 38.5
333.19 K | 1449.7 | –
343.15 K | – | 27.5
343.21 K | 1440.5 | –

CCCC[N+](C)(C)C.O=S(=O)([N-]S(=O)(=O)C(F)(F)F)C(F)(F)F [butyltrimethylammonium bis(trifluoromethylsulfonyl)imide]
Settings | mass density [kg/m3] | viscosity [mPa·s]
293.15 K | – | 138
293.26 K | 1396.5 | –
303.15 K | – | 82.3
303.22 K | 1387.6 | –
313.03 K | 1379 | –
313.15 K | – | 52.2
323.13 K | 1370 | –
323.15 K | – | 35.5
333.15 K | – | 27.9
333.17 K | 1361.3 | –
343.15 K | – | 21.5
343.18 K | 1352.8 | –

O=S(=O)([N-]S(=O)(=O)C(F)(F)F)C(F)(F)F.OCCC[n+]1ccccc1
Settings | mass density [kg/m3] | viscosity [mPa·s]
293.15 K | 1551 | 160
303.15 K | – | 92.2
303.24 K | 1541.7 | –
313.14 K | 1532.1 | –
313.15 K | – | 57.7
323.15 K | 1522.9 | 38.2
333.15 K | – | 29.4
333.16 K | 1513.8 | –
343.13 K | 1504.7 | –
343.15 K | – | 22.8

CCCC[N+]1(C)CCCC1.O=S(=O)([N-]S(=O)(=O)C(F)(F)F)C(F)(F)F
Settings | mass density [kg/m3] | viscosity [mPa·s]
293.09 K | 1398 | –
293.15 K | – | 101
302.89 K | 1389.2 | –
303.15 K | – | 63.8
313.15 K | – | 41.8
313.59 K | 1379.8 | –
323.15 K | – | 28.9
323.38 K | 1371.3 | –
332.57 K | 1363.1 | –
333.15 K | – | 23.5
342.84 K | 1354.6 | –
343.15 K | – | 18.6

CCCCCC[n+]1cccc(C)c1.O=S(=O)([N-]S(=O)(=O)C(F)(F)F)C(F)(F)F
Settings | mass density [kg/m3] | viscosity [mPa·s]
293.14 K | 1356.1 | –
293.15 K | – | 105
303.15 K | – | 64.2
303.17 K | 1347.1 | –
313.14 K | 1338.4 | –
313.15 K | – | 41.2
323.13 K | 1329.7 | –
323.15 K | – | 28.3
333.15 K | – | 22.5
333.22 K | 1321 | –
343 K | 1312.9 | –
343.15 K | – | 17.5
